Read-outs that look alike come from different tables or passages of the source.
Legend:
Lewis rats = type: in vivo; conditions: for % change in body-weight #<−21% / % change in body-weight #>10% / % change in body-weight Mean: day 14-21, 6 animals; for % change in swelling Mean / % change in swelling #<80% / % change in swelling #>170% / % change in swelling #>150%: paw swelling day 21 as % of day 14, 6 animals; for % change in swelling #<80%: criterion for anti-inflammatory activity; for % change in swelling #>170%: pro-inflammatory activity; for % change in swelling #>150%: tendency towards pro-inflammatory activity
Protocol: Male SPF-breeded Lewis rats (Charles River; 225-275 g) were housed in individual cages under standard laboratory conditions (21±2° C.; 65±15% relative humidity; light-dark cycle set at 12 h). Mycobacterium butyricum (heat-killed and suspended in paraffin oil at 5 mg/ml; 0.05 ml) was inoculated intradermally at the tail base of the rats. On day 14 after inoculation, the diameters (Ø) of the hind paws and tibiotarsal joints (ΣØ14) were compared with the initial diameters (ΣØ0) and rats with a significant swelling (ΔØ14-0≧6.0 mm) were assigned to the various treatment groups (n=6; […]).
Body weight and paw diameters were measured at days 14 and after 1-week treatment at day 21. Diet consumption was also measured and the number of dead animals on day 21 was noted. Paw swelling at day 21 was expressed as a percentage of the initial inflammation at the start of the treatment (day 14). Control animals were included in each experimental session. Test compounds were administered via a medicated diet. For that purpose, compounds were mixed with ground pellets in proportion to give an approximate daily dose. This medicated diet was administered ad libitum during the experimental period. The real dose was calculated by multiplying the consumed amount of diet with the concentration of the test compound in the diet.
Based on a frequency distribution of a series of control data (n=181), all-or-nothing criteria for drug-induced effects were established. The averaged body weight change during the 1 week experimental period in the control population was a decrease of 7 g. […] In the same set of control animals, paw swelling at day 21 was on the average 117% of the initial value at day 14.

DBA1/J mice = experiment: Collagen type II induced arthritis, prophylactic treatment (Example 1); type: in vivo; conditions: for Ankylosis score / Incidence of ankylosis (% of animals affected) / Incidence of arthritis (% of animals affected) / Mean Arthritic Score / Mean number of affected paws: 100 mpk (2 ×) orally, treated day 20-36
Protocol: Male DBA1/J mice were immunized intradermally with collagen type II emulsified in complete Freund's Adjuvant on day 0 and day 21. Treatment of mice was started on day 20 (10 animals/treatment group). Mice were treated orally twice daily (6 hours time interval) with vehicle [DMSO: cremophor: 0.9% NaCl solution, 1:1:8 (v:v:v)] or compound 75 at a dose of 100 mg/kg. Three times per week symptoms of arthritis were scored. Animals were treated till day 36, at day 37 animals were sacrificed, blood was collected for analysis of anti-collagen antibodies, radiographs were made and paws were fixed for histological evaluation. […] Trained lab personnel evaluated the severity and incidence of the arthritic symptoms at regular intervals without knowing which animals had received vehicle or drug.
In Table 9, the mean arthritic score is shown. For each paw, a score ranging from 0 (normal) to 2 (maximal redness and swelling) is given. The score for the 4 paws is summed up and averaged for the 10 animals per group (=Mean arthritic score).
Table 11 summarizes the results of the observations for the occurrence of ankylosis as the arthritis progresses. Each paw is scored as follows: 0 for no ankylosis, 1 for ankylosis. Again the results for the four paws are summed up and averaged for the 10 animals. At the end of the experiment, the ankylosis score in the vehicle group (3.1) is clearly higher than that in the group treated with Compound 75 (1.2).

[1] = dose 40 mg/kg via medicated diet
[2] = dose 80 mg/kg via medicated diet
[3] = dose 160 mg/kg via medicated diet
[4] = 100 mg/kg orally twice daily, day 20-36
[5] = 100 mg/kg orally twice daily, versus vehicle

Cn1cncc1C(N)(c1ccc(Cl)cc1)c1ccc2c(c1)c(-c1cccc(Cl)c1)cc(=O)n2C (single isomer, unassigned; (+)) [Compound 75, (+)-6-[amino(4-chlorophenyl)(1-methyl-1H-imidazol-5-yl)methyl]-4-(3-chlorophenyl)-1-methyl-2(1H)-quinolinone]
% change in body-weight #<−21% (Lewis rats; [1]): 0 number of animals | % change in body-weight #>10% (Lewis rats; [1]): 0 number of animals | % change in body-weight Mean (Lewis rats; [1]): −9% | % change in swelling Mean (Lewis rats; [1]): 94% | % change in swelling #<80% (Lewis rats; [1]): 0 number of animals | % change in swelling #>170% (Lewis rats; [1]): 0 number of animals | % change in swelling #>150% (Lewis rats; [1]): 0 number of animals | % change in body-weight #<−21% (Lewis rats; [2]): 4 number of animals | % change in body-weight #>10% (Lewis rats; [2]): 0 number of animals | % change in body-weight Mean (Lewis rats; [2]): −19% | % change in swelling Mean (Lewis rats; [2]): 86% | % change in swelling #<80% (Lewis rats; [2]): 3 number of animals | % change in swelling #>170% (Lewis rats; [2]): 0 number of animals | % change in swelling #>150% (Lewis rats; [2]): 0 number of animals | % change in body-weight #<−21% (Lewis rats; [3]): 4 number of animals | % change in body-weight #>10% (Lewis rats; [3]): 0 number of animals | % change in body-weight Mean (Lewis rats; [3]): −24% | % change in swelling Mean (Lewis rats; [3]): 79% | % change in swelling #<80% (Lewis rats; [3]): 3 number of animals | % change in swelling #>170% (Lewis rats; [3]): 0 number of animals | % change in swelling #>150% (Lewis rats; [3]): 0 number of animals | lethalities (DBA1/J mice; [4]): no lethalities were observed | signs of toxicity (DBA1/J mice; [4]): did not show any signs of toxicity | effect on mean arthritic score (in words) (DBA1/J mice; [5]): clearly suppresses the arthritic score | effect on mean number of affected paws (in words) (DBA1/J mice; [5]): reduces that number | effect on mean arthritic score (in words) (DBA1/J mice; 100 mg/kg orally twice daily, versus vehicle, listed as compound 75): reduces the mean arthritic score | incidence of ankylosis (DBA1/J mice; 100 mg/kg orally twice daily, summary in text of Table 12): 60% | Ankylosis score (DBA1/J mice; day 22 after immunization): 0.00 | Incidence of ankylosis (% of animals affected) (DBA1/J mice; day 22 after immunization): 0% | Incidence of arthritis (% of animals affected) (DBA1/J mice; day 22 after immunization): 0% | Mean Arthritic Score (DBA1/J mice; day 22 after immunization): 0.00 | Mean number of affected paws (DBA1/J mice; day 22 after immunization): 0.00 | Ankylosis score (DBA1/J mice; day 24 after immunization): 0.00 | Incidence of ankylosis (% of animals affected) (DBA1/J mice; day 24 after immunization): 0% | Incidence of arthritis (% of animals affected) (DBA1/J mice; day 24 after immunization): 20% | Mean Arthritic Score (DBA1/J mice; day 24 after immunization): 0.05 | Mean number of affected paws (DBA1/J mice; day 24 after immunization): 0.20 | Ankylosis score (DBA1/J mice; day 27 after immunization): 0.30 | Incidence of ankylosis (% of animals affected) (DBA1/J mice; day 27 after immunization): 10% | Incidence of arthritis (% of animals affected) (DBA1/J mice; day 27 after immunization): 40% | Mean Arthritic Score (DBA1/J mice; day 27 after immunization): 0.60 | Mean number of affected paws (DBA1/J mice; day 27 after immunization): 0.80 | Ankylosis score (DBA1/J mice; day 29 after immunization): 0.80 | Incidence of ankylosis (% of animals affected) (DBA1/J mice; day 29 after immunization): 50% | Incidence of arthritis (% of animals affected) (DBA1/J mice; day 29 after immunization): 80% | Mean Arthritic Score (DBA1/J mice; day 29 after immunization): 0.90 | Mean number of affected paws (DBA1/J mice; day 29 after immunization): 1.30 | Ankylosis score (DBA1/J mice; day 31 after immunization): 1.10 | Incidence of ankylosis (% of animals affected) (DBA1/J mice; day 31 after immunization): 50% | Incidence of arthritis (% of animals affected) (DBA1/J mice; day 31 after immunization): 70% | Mean Arthritic Score (DBA1/J mice; day 31 after immunization): 1.03 | Mean number of affected paws (DBA1/J mice; day 31 after immunization): 1.70 | Ankylosis score (DBA1/J mice; day 34 after immunization): 1.20 | Incidence of ankylosis (% of animals affected) (DBA1/J mice; day 34 after immunization): 50% | Incidence of arthritis (% of animals affected) (DBA1/J mice; day 34 after immunization): 60% | Mean Arthritic Score (DBA1/J mice; day 34 after immunization): 0.80 | Mean number of affected paws (DBA1/J mice; day 34 after immunization): 1.20 | Ankylosis score (DBA1/J mice; day 36 after immunization): 1.40 | Incidence of ankylosis (% of animals affected) (DBA1/J mice; day 36 after immunization): 60% | Incidence of arthritis (% of animals affected) (DBA1/J mice; day 36 after immunization): 70% | Mean Arthritic Score (DBA1/J mice; day 36 after immunization): 0.75 | Mean number of affected paws (DBA1/J mice; day 36 after immunization): 1.30 | Ankylosis score (DBA1/J mice; day 37 after immunization (end of the experiment), 100 mg/kg): 1.2 | Incidence of ankylosis (% of animals affected) (DBA1/J mice; day 37 after immunization): 60% | Incidence of arthritis (% of animals affected) (DBA1/J mice; day 37 after immunization): 60% | Mean Arthritic Score (DBA1/J mice; day 37 after immunization): 0.80 | Mean number of affected paws (DBA1/J mice; day 37 after immunization): 1.30

From patent US6451812B1, “Farnesyl protein transferase inhibitors for treating arthropathies” (Janssen Pharmaceutica N.V., priority 1998, dated 2002)
